From patent publication US8921555B2, “Substituted-1,3,8-triazaspiro[4.5]decane-2,4-diones” (Merck Sharp & Dohme Corp., priority 2009, dated 2014)

Target: T1, HIF-PHD2 (Homo sapiens, UniProt Q9GZT9)
T1 construct: FLAG-tagged full length PHD2 expressed in and purified from baculovirus-infected Sf9 cells; FLAG; made in house; host or cells: baculovirus-infected Sf9 cells
Assay: Assay for HIF-PHD2 Catalytic Activity (PHD2 Binding Activity)
Type: biochemical
Settings: not given

T1 sequence (Q9GZT9 whole entry): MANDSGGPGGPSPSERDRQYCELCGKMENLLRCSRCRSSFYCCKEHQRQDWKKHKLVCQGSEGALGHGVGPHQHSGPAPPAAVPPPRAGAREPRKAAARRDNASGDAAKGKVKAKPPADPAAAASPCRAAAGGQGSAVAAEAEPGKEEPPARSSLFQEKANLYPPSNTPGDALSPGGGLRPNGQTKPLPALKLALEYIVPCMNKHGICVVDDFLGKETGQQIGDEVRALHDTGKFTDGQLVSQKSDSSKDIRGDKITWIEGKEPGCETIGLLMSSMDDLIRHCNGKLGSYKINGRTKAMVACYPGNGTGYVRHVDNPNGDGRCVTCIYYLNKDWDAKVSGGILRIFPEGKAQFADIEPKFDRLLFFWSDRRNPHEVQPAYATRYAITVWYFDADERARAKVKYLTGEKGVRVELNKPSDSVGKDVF

Structure (SMILES)	IC50
CC(C)Oc1cccc(CN2CC[C@@]3(C[C@@H]2C)C(=O)N(c2ccccc2)C(=O)N3c2cccc(F)c2)c1 [Egbertson's Example 31]	> 10000 nM
COc1ccnc(N2C(=O)N(c3ccc(-c4nnn[nH]4)cc3)C(=O)C23CCN(Cc2ncccc2C)CC3)n1 [Compound 1-15, 1-(4-methoxypyrimidin-2-yl)-8-[(3-methylpyridin-2-yl)methyl]-3-[4-(1H-tetrazol-5-yl)phenyl]-1,3,8-triazaspiro[4.5]decane-2,4-dione]	20 to 50 nM
O=C(O)c1[nH]cnc1CN1CCC2(CC1)C(=O)N(c1ccc(-c3ccccc3)cc1)C(=O)N2c1cc(O)ncn1 [Compound 1-52, 4-{[3-biphenyl-4-yl-1-(6-hydroxypyrimidin-4-yl)-2,4-dioxo-1,3,8-triazaspiro[4.5]dec-8-yl]methyl}-1-H-imidazole-5-carboxylic acid]	0.5 to 20 nM
COC(=O)c1cccc(N2C(=O)N(c3ccc(-c4ccccc4)cc3)C(=O)C23CCN(Cc2ncccc2C)CC3)n1 [Compound 1-13, methyl 6-{3-biphenyl-4-yl-8-[(3-methylpyridin-2-yl)methyl]-2,4-dioxo-1,3,8-triazaspiro[4.5]dec-1-yl}pyridine-2-carboxylate]	0.5 to 20 nM
Cc1cccnc1CN1CCC2(CC1)C(=O)N(c1ccc(-c3ccccc3)cc1)C(=O)N2c1cccc(F)n1 [Compound 1-6, 3-biphenyl-4-yl-1-(6-fluoropyridin-2-yl)-8-[(3-methylpyridin-2-yl)methyl]-1,3,8-triazaspiro[4.5]decane-2,4-dione]	0.5 to 20 nM
COc1cc(N2C(=O)N(c3ccc(-c4ccc(C(=O)O)cc4F)nc3)C(=O)C23CCN(Cc2ncccc2C)CC3)ncn1 [Compound 12-1, 3-fluoro-4-(5-{1-(6-methoxypyrimidine-4-yl)-8-[(3-methylpyridin-2-yl)methyl]-2,4-dioxo-1,3,8-triazaspiro[4.5]dec-3-yl}pyridin-2-yl)-3-benzoic acid]	0.5 to 20 nM
Cc1cc(C(=O)O)ccc1-c1ccc(N2C(=O)N(c3cccnn3)C3(CCN(Cc4ncccc4C)CC3)C2=O)cc1 [Compound 9-2, 2-methyl-4′-{8-[(3-methylpyridin-2-yl)methyl]-2,4-dioxo-1-pyridazin-3-yl-1,3,8-triazaspiro[4.5]dec-3-yl}biphenyl-4-carboxylic acid]	0.5 to 20 nM
CCCCOC(=O)c1[nH]cnc1CN1CCC2(CC1)C(=O)N(c1ccc(-c3ccccc3)cc1)C(=O)N2c1nccc(O)n1 [Compound 1-46, Butyl 4-{[3-biphenyl-4-yl-1-(4-hydroxypyrimidin-2-yl)-2,4-dioxo-1,3,8-triazaspiro[4.5]dec-8-yl]methyl}-1-H-imidazole-5-carboxylate]	20 to 50 nM
Cc1cccnc1CN1CCC2(CC1)C(=O)N(c1ccc(C3CC3C(=O)O)cc1)C(=O)N2c1ncccn1 (stereo not shown) [Compound 1-69, 2-(4-{8-[(3-methylpyridin-2-yl)methyl]-2,4-dioxo-1-pyrimidin-2-yl-1,3,8-triazaspiro[4.5]dec-3-yl}phenyl)cyclopropanecarboxylic acid]	0.5 to 20 nM
CCOC(=O)C1CN(Cc2ncccc2C)CCC12C(=O)N(c1ccc(-c3ccccc3)cc1)C(=O)N2c1cc(OC)ncn1 (stereo not shown) [Compound 3-9, Ethyl 3-biphenyl-4-yl-1-(6-methoxypyrimidin-4-yl)-8-[(3-methylpyridin-2-yl)methyl]-2,4-dioxo-1,3,8-triazaspiro[4.5]decane-6-carboxylate]	0.5 to 20 nM
O=C(O)c1[nH]cnc1CN1CCC2(CC1)C(=O)N(c1ccc(-c3ccccc3)cc1)C(=O)N2c1ncccn1 [Compound 1-64, 4-[(3-biphenyl-4-yl-2,4-dioxo-1-pyrimidin-2-yl-1,3,8-triazaspiro[4.5]dec-8-yl)methyl]-1-H-imidazole-5-carboxylic acid]	0.5 to 20 nM
O=C(O)Cn1ccnc1CN1CCC2(CC1)C(=O)N(c1ccc(-c3ccccc3)cc1)C(=O)N2c1nccc(O)n1 [Compound 1-23, (2-{[3-biphenyl-4-yl-1-(4-hydroxypyrimidin-2-yl)-2,4-dioxo-1,3,8-triazaspiro[4.5]dec-8-yl]methyl}-1H-imidazol-1-yl)acetic acid]	0.5 to 20 nM
COc1cc(N2C(=O)N(c3ccc(-c4ccc(C(=O)O)cc4)nc3)C(=O)C23CCN(Cc2cc(O)ccn2)CC3)ncn1 [Compound 10-4, 4-(5-{8-[(4-hydroxypyridin-2-yl)methyl]-1-(6-methoxypyrimidin-4-yl)-2,4-dioxo-1,3,8-triazaspiro[4.5]dec-3-yl}-pyridin-2-yl) benzoic acid]	0.5 to 20 nM
Cc1cccnc1CN1CCC2(CC1)C(=O)N(c1ccc(-c3ccccc3)cc1)C(=O)N2c1nccc(C(=O)O)n1 [Compound 1-59, 2-{3-biphenyl-4-yl-8-[(3-methylpyridin-2-yl)methyl]-2,4-dioxo-1,3,8-triazaspiro[4.5]dec-1-yl}pyrimidine-4-carboxylic acid]	0.5 to 20 nM
Cc1cccnc1CN1CCC2(CC1)C(=O)N(c1ccc(-c3ccccc3)cc1)C(=O)N2c1ncccc1O [Compound 1-43, 3-biphenyl-4-yl-1-(3-hydroxypyridin-2-yl)-8-[(3-methylpyridin-2-yl)methyl]-1,3,8-triazaspiro[4.5]decane-2,4-dione]	20 to 50 nM
Cc1cccnc1CN1CCC2(C(=O)N(c3ccc(-c4ccccc4)cc3)C(=O)N2c2ncccn2)C(C(=O)O)C1 (stereo not shown) [Compound 3-8, 3-biphenyl-4-yl-8-[(3-methylpyridin-2-yl)methyl]-2,4-dioxo-1-pyrimidin-2-yl-1,3,8-triazaspiro[4.5]decane-6-carboxylic acid]	0.5 to 20 nM
COc1cccc(N2C(=O)N(c3ccc(-c4ccccc4)cc3)C(=O)C23CCN(Cc2ncccc2C)CC3)n1 [Compound 1-11, 3-biphenyl-4-yl-1-(6-methoxypyridin-2-yl)-8-[(3-methylpyridin-2-yl)methyl]-1,3,8-triazaspiro[4.5]decane-2,4-dione]	0.5 to 20 nM
COc1ccnc(N2C(=O)N(c3ccc(-c4ccccc4)cc3)C(=O)C23CCN(Cc2ncccc2C#N)CC3)n1 [Compound 1-40, 2-{[3-biphenyl-4-yl-1-(4-methoxypyrimidin-2-yl)-2,4-dioxo-1,3,8-triazaspiro[4.5]dec-8-yl]methyl}nicotinonitrile]	> 50 nM
Cc1cccnc1CN1CCC2(C(=O)N(c3ccc(-c4ccccc4)cc3)C(=O)N2c2cc(O)ncn2)C(C(=O)O)C1 (stereo not shown) [Compound 3-7, 3-biphenyl-4-yl-1-(6-hydroxypyrimidin-4-yl)-8-[(3-methylpyridin-2-yl)methyl]-2,4-dioxo-1,3,8-triazaspiro[4.5]decane-6-carboxylic acid]	0.5 to 20 nM
Cc1cccnc1CN1CCC2(CC1)C(=O)N(c1ccc(-c3cccc(C(=O)O)c3)cc1)C(=O)N2c1ncccn1 [Compound 1-66, 4′-{8-[(3-methylpyridin-2-yl)methyl]-2,4-dioxo-1-pyrimidin-2-yl-1,3,8-triazaspiro[4.5]dec-3-yl}biphenyl-3-carboxylic acid]	0.5 to 20 nM

Same assay, conditions: read-out: PHD2 Binding Activity IC50

Structure (SMILES)	IC50
Cc1cccnc1CN1CCC2(CC1)C(=O)N(c1ccc(-c3ccccc3)cc1)C(=O)N2c1cccs1 [Compound 1-27, 3-biphenyl-4-yl-8-[(3-methylpyridin-2-yl)methyl]-1-(2-thienyl)-1,3,8-triazaspiro[4.5]decane-2,4-dione]	0.5 to 20 nM
O=C(O)c1[nH]cnc1CN1CCC2(CC1)NC(=O)N(c1ccc(-c3ccccc3)cc1)C2=O [Compound 1-51, 4-[(3-biphenyl-4-yl-2,4-dioxo-1,3,8-triazaspiro[4.5]dec-8-yl)methyl]-1-H-imidazole-5-carboxylic acid]	0.5 to 20 nM
Cc1cc(C(=O)O)ccc1-c1ccc(N2C(=O)N(CC(F)(F)F)C3(CCN(Cc4ncccc4C)CC3)C2=O)cn1 [Compound 11-3, 3-methyl-4-(5-{8-[(3-methylpyridin-2-yl)methyl]-2,4-dioxo-1-(2,2,2-trifluoroethyl)-1,3,8-triazaspiro[4.5]dec-3-yl}-pyridin-2-yl) benzoic acid]	0.5 to 20 nM

Target: HIF-PHD3 (Homo sapiens, UniProt Q9H6Z9)
Assay: Inhibition of the catalytic activity of HIF-PHD3
Type: biochemical
Settings: comparison compounds of WO 2008/030412; read-out: IC50 (nM) HIF-PHD-3
Method: (§1) To each well of a 96-well plate was added 1 μL of test compound in DMSO and 20 μL of assay buffer (50 mM Tris pH 7.4/0.01% Tween-20/0.1 mg/ml bovine serum albumin/10 μM ferrous sulfate/1 mM sodium ascorbate/20 μg/ml catalase) containing 0.15 μg/ml FLAG-tagged full length PHD2 expressed in and purified from baculovirus-infected Sf9 cells. After a […] at room temperature, the enzymatic reactions were initiated by the addition of 4 μL of substrates (final concentrations of 0.2 μM 2-oxoglutarate and 0.5 μM HIF-1α peptide biotinyl-[…]). After 2 hr at room temperature, the reactions were terminated and signals were developed by the addition of a 25 μL quench/detection mix to a final concentration of 1 mM ortho-phenanthroline, 0.1 mM EDTA, 0.5 nM anti-(His)6 LANCE reagent (Perkin-Elmer Life Sciences), 100 nM AF647-labeled streptavidin (Invitrogen), and 2 μg/ml (His)6-VHL complex (S. Tan(2001) Protein Expr. Purif. 21, 224-234). The ratio of time resolved fluorescence signals at 665 and 620 nm was determined, and percent inhibition was calculated relative to an uninhibited control sample run in parallel.
(§2) Inhibition of the catalytic activity of HIF-PHD1 and HIF-PHD3 can be determined similarly.

Chain of HIF-PHD3 (Q9H6Z9 whole entry): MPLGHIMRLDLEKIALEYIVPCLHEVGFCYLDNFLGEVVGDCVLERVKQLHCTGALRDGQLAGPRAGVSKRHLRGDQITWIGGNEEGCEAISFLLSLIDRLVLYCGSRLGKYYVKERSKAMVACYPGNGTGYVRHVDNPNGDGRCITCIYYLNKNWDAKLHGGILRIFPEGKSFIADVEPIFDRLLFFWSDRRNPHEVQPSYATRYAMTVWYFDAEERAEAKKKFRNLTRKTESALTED

Structure (SMILES)	IC50
CC(C)Oc1cccc(CN2CC[C@@]3(C[C@@H]2C)C(=O)N(c2ccccc2)C(=O)N3c2cccc(F)c2)c1 [Egbertson's Example 31]	> 10000 nM

Target: HIF-PHD1 (Homo sapiens, UniProt Q96KS0)
Assay: Inhibition of the catalytic activity of HIF-PHD1
Type: biochemical
Settings: comparison compounds of WO 2008/030412; read-out: IC50 (nM) HIF-PHD-1
Method: as §1, §2

Chain of HIF-PHD1 (Q96KS0 whole entry): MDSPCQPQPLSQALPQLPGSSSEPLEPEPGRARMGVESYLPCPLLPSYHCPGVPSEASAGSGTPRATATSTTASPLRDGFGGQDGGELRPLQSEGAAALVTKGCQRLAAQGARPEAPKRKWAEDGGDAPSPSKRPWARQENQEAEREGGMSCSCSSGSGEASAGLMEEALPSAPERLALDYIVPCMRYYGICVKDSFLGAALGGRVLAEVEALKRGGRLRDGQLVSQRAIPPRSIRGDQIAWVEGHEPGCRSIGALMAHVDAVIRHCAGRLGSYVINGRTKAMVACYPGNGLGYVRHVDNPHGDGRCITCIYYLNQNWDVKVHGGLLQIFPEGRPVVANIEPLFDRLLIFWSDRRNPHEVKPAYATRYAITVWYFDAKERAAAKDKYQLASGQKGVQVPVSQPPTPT

Structure (SMILES)	IC50
CC(C)Oc1cccc(CN2CC[C@@]3(C[C@@H]2C)C(=O)N(c2ccccc2)C(=O)N3c2cccc(F)c2)c1 [Egbertson's Example 31]	> 10000 nM
